# Source: PMC10369045, “Radiolabelling of peptides with tetrazine ligation based on the inverse electron-demand Diels–Alder reaction: rapid, catalyst-free and mild conversion of 1,4-dihydropyridazines to pyridazines” (RSC Advances, 2023)
# Columns and labels:
# [1] = Reversed-phase HPLC-RAD/DAD retention of DHP and pyridazine forms; format: physicochemical; conditions: HPLC-RAD/DAD and HPLC-RAD/UV, Kinetex 5 µm C18 250 × 10.0 mm, 20-50% B in 20 min, H2O/ACN + 0.1% TFA, 3 mL/min, room temperature; elution order used as indication of lipophilicity
# Description: The HPLC instruments were equipped with either two channel UV/VIS or a PDA detector, and a NaI(Tl) scintillation detector for detection of radioactivity.
# Table S2. The gradient used for HPLC-RAD/DAD studies.
# Flow rate: 3 mL/min at room temperature
# Column: Phenomenex Kinetex® 5 µm C18 100 Å, LC Column 250 × 10.0 mm
# Eluents: (A) H2O+0.1% Trifluoroacetic acid and (B) ACN +0.1% Trifluoroacetic acid
# [2] = Lipophilicity (LogD7.4), shake-flask method
# Description: Lipophilicity. Shake-flask method was used for determining the lipophilicities (LogD7.4) of the radiolabeled
# compounds. LogD7.4 was determined as a distribution of radioactivity between 0.01 M PBS and octanol. The
# purified radiolabeled compound (25 µL) was added to a 1:1 mixture of 1-octanol and 0.02 M PBS (pH 7.4) in
# a 1.5 mL microtube. The mixture was shaken mechanically at 500 rpm for 10 minutes, centrifuged (1000 × g,
# 5 minutes), and the layers were separated, followed by pipetting a sample (500 µL) from each layer into a pre-
# weighed polypropylene tube. The radioactivity in the sample was measured with a Wizard gamma counter.
# The distribution of the radiolabeled compound between the octanol and the PBS layers was calculated
# [3] = Incubation tests of IEDDA cycloaddition product (conversion of DHPs to oxidized pyridazine form); format: physicochemical; conditions: for Conversion to oxidized form of the peptide cycloadduct: incubation in ≥95% (v/v) water at 60 °C; for Conversion to oxidized form of the peptide cycloadduct / [18F]AmBF3(ox.)-TOC (%): radio-HPLC
# Description: Protic solvents in acidic reaction conditions at various temperatures were used in-order to investigate the conditions that might influence the formation of the oxidized form from DHPs or that might slow down the process. […] The (radio)peaks of [^19F/^18F]6(a, b) (peptide 6, tR = 20 min) were successfully converted (≥97%) to the more polar compound (peptide 6, tR = 17 min) by incubation in increasing amounts of water in acetonitrile (Fig. 2C). When incubating in 75% (v/v) ACN in water for 10 min at 60 °C, the conversion to polar (peptide 6, tR = 17 min) compound was 59% (ESI Table S7 ^†).
# Table S7. Incubation tests of IEDDA cycloaddition product.
# Peptide Peptide Solvent Vol. pH Temp. Time [18F] AmBF3 (ox.)-
# (nmol) (v/v-%) (µL) (°C) (min) TOC (%)
# [4] = tested on: SSTR2-expressing rat pancreatic adenocarcinoma AR42J cells; test: Cell uptake assay in AR42J cells; format: cell-based; conditions: oxidized pyridazine form, gamma counting
# Description: Aoct=activity in the octanol phase
# APBS=activity in the PBS phase
# Cell-uptake assay in AR42J
# The cells were cultured in Gibco™ F-12K Medium
# 1×PBS was prepared from Phosphate Buffered Saline
# Tablets (Fisher Bioreagents, Hampton, USA) in water. 1.0 M Sodium hydroxide was purchased from VWR […]
# Chemicals. […] AR42J cells (1×106 per […]
# well) were seeded overnight on 6-well plates.
# Another set of cells were co-incubated in […]
# microtube (=free fraction). […]
# washing the cells with cold 1×PBS. […] 1 M NaOH […]
# microtube (=internalized fraction).
# tumour = conditions: ex vivo biodistribution and PET/CT imaging; tumour uptake efficiently blocked; ref earlier cohort by us; cited from earlier work
# Description: In this study, we report a rapid, mild, and facile method for converting dihydropyridazine cycloaddition products to pyridazine during IEDDA, in only 10 minutes.
smiles,measurement,setting,value
"C[C@@H](O)[C@@H]1NC(=O)[C@H](CCCCN)NC(=O)[C@@H](Cc2c[nH]c3ccccc23)NC(=O)[C@H](Cc2ccc(O)cc2)NC(=O)[C@@H](NC(=O)[C@@H](Cc2ccccc2)NC(=O)CCOCCOCCOCCOCCON=Cc2ccc(C(=O)NCCOCCOCCOCCNC(=O)OC3CCCC4=C(c5ccc(CC(=O)NCC[N+](C)(C)C[B-](F)(F)F)cc5)NN=CC4CC3)cc2)CSSC[C@@H](C(=O)N[C@H](CO)[C@@H](C)O)NC1=O (stereo partly shown) [[18F]6 (DHP, a)]",Retention time,[1],20.6 min
"C[C@@H](O)[C@@H]1NC(=O)[C@H](CCCCN)NC(=O)[C@@H](Cc2c[nH]c3ccccc23)NC(=O)[C@H](Cc2ccc(O)cc2)NC(=O)[C@@H](NC(=O)[C@@H](Cc2ccccc2)NC(=O)CCOCCOCCOCCOCCON=Cc2ccc(C(=O)NCCOCCOCCOCCNC(=O)OC3CCCC4=C(c5ccc(CC(=O)NCC[N+](C)(C)C[B-](F)(F)F)cc5)NN=CC4CC3)cc2)CSSC[C@@H](C(=O)N[C@H](CO)[C@@H](C)O)NC1=O (stereo partly shown) [[18F]6 (DHP, b)]",Retention time,[1],20.2 min
"C[C@@H](O)[C@@H]1NC(=O)[C@H](CCCCN)NC(=O)[C@@H](Cc2c[nH]c3ccccc23)NC(=O)[C@H](Cc2ccc(O)cc2)NC(=O)[C@@H](NC(=O)[C@@H](Cc2ccccc2)NC(=O)CCOCCOCCOCCOCCON=Cc2ccc(CNC(=O)OC3CCCc4cnnc(-c5ccc(CC(=O)NCC[N+](C)(C)C[B-](F)(F)F)cc5)c4CC3)cc2)CSSC[C@@H](C(=O)N[C@H](CO)[C@@H](C)O)NC1=O (stereo partly shown) [[18F]5 (ox.), AmBF3-PEG4-TOC]",Retention time,[1],18.7 min
same,logD,[2]; pH 7.4,0.58 ± 0.06
same,Conversion to oxidized form of the peptide cycloadduct,[3],full conversion
"C[C@@H](O)[C@@H]1NC(=O)[C@H](CCCCN)NC(=O)[C@@H](Cc2c[nH]c3ccccc23)NC(=O)[C@H](Cc2ccc(O)cc2)NC(=O)[C@@H](NC(=O)[C@@H](Cc2ccccc2)NC(=O)CCOCCOCCOCCOCCON=Cc2ccc(C(=O)NCCOCCOCCOCCNC(=O)OC3CCCc4cnnc(-c5ccc(CC(=O)NCC[N+](C)(C)C[B-](F)(F)F)cc5)c4CC3)cc2)CSSC[C@@H](C(=O)N[C@H](CO)[C@@H](C)O)NC1=O (stereo partly shown) [[18F]6, AmBF3-PEG7-TOC]","Cell uptake in AR42J cells (specificity, blocking with octreotide)","[4]; 1 million AR42J cells per well, 37 °C, triplicates per timepoint, blocked by co-incubation with excess non-radiolabelled octreotide",specific uptake
same,Internalization by AR42J cells,[4]; internalized fraction after glycine buffer (pH 2.8) wash and 1 M NaOH lysis,internalized by the cells
same,Tumour visualization in vivo,tumour,able to visualize the tumour in vivo
same,LogD7.4,"[2]; shake-flask 1-octanol/PBS (pH 7.4) 1:1, 25 µL purified radiolabelled compound, shaken 500 rpm 10 min, centrifuged 1000 × g 5 min, gamma counter, mean ± SD, n = 3-4, HPLC-separated fractions (DHP a 77%, DHP b 88% pure), listed as [^18F]6(ox.)",−0.73 ± 0.12
same,[18F]AmBF3(ox.)-TOC (%),"[3]; 2 nmol peptide, ACN:H2O (25:75), 60 µL, 60 °C, 15 min, n = 1",84%
same,[18F]AmBF3(ox.)-TOC (%),"[3]; 2.5 nmol peptide, 0.15 mM citrate buffer, 180 µL, pH 3.75, 60 °C, 10 min",9%
same,[18F]AmBF3(ox.)-TOC (%),"[3]; 2.5 nmol peptide, ACN:H2O (25:75), 20 µL, 60 °C, 10 min",89%
same,[18F]AmBF3(ox.)-TOC (%),"[3]; 2.5 nmol peptide, ACN:H2O (40:60), 25 µL, 60 °C, 15 min, n = 1",77%
same,[18F]AmBF3(ox.)-TOC (%),"[3]; 2.5 nmol peptide, ACN:H2O (75:25), 20 µL, 60 °C, 10 min, n = 1",59%
same,[18F]AmBF3(ox.)-TOC (%),"[3]; 5 nmol peptide, 0.01 mM citrate buffer, 180 µL, pH 4, 37 °C, 10 min",4%
same,[18F]AmBF3(ox.)-TOC (%),"[3]; 5 nmol peptide, 0.15 mM citrate buffer, 180 µL, pH 3.75, 37 °C, 10 min",5%
same,[18F]AmBF3(ox.)-TOC (%),"[3]; 5 nmol peptide, 10 x PBS, 180 µL, pH 6.8, 37 °C, 10 min",5%
same,[18F]AmBF3(ox.)-TOC (%),"[3]; 7.5 nmol peptide, ACN:H2O (13:87), 150 µL, 60 °C, 10 min",25%
same,[18F]AmBF3(ox.)-TOC (%),"[3]; 7.5 nmol peptide, ACN:H2O (25:75), 20 µL, 40 °C, 20 min",86%
same,[18F]AmBF3(ox.)-TOC (%),"[3]; 2-50 nmol peptide, ACN:H2O (≥95% H2O), 20-200 µL, 60 °C, 10 min, n = 1",100%
same,Conversion of DHP peak cluster (tR ≈ 20 min) to single oxidized peak (tR = 17 min) at room temperature,"[3]; collected HPLC fraction left at room temperature for 18 hours (overnight), HPLC-DAD and UHPLC-HRMS",total conversion
same,Conversion to oxidized form of the peptide cycloadduct,[3],full conversion
